In patent US20060173031A1, “Therapeutic agent for schizophrenia” (MITSUBISHI PHARMA CORPORATION, priority 2003, published 2006):

Tested on: Phencyclidine (PCP)-induced passive avoidance reaction disorder
Assay: Phencyclidine (PCP)-induced passive avoidance reaction disorder in rats
Type: in vivo, Wistar male rats
Conditions: 10 mg/kg oral, 30 min before PCP 2 mg/kg i.p.; test trial 24 hr after acquisition trial; max 300 seconds; versus vehicle group

SMILES: Cc1oc2nc3c(c(NC(=O)CN4CCCC4=O)c2c1C)CCCC3 [compound A, 2-(2-oxopyrrolidin-1-yl)-N-(2,3-dimethyl-5,6,7,8-tetrahydrofuro[2,3-b]quinolin-4-yl)acetamide]
- latent time of test trial (passive avoidance reaction): significantly prolonged the latent time shortened by the PCP administration
